Literature values in patent US10954430B2, “Low-toxicity, low-flammability, environmentally-safe, friction reducer fluid for hydraulic fracturing” (priority 2012, dated 2021).
Values after ≈ are worked out from the molar mass of the structure shown. Read-outs that look alike come from different tables or passages of the source.

Legend:
most sensitive species = settings: eco-toxicity
animal = settings: in vivo
[1] = test system: daphnia magna (water flea)
[2] = test system: Pimephales promelas (fathead minnow)

CC(O)COc1ccccc1 (stereo not drawn) [Dowanol PPH, propylene glycol phenyl ether]
LC50 for most sensitive species (most sensitive species): > 100 µg/mL | animal toxicity (animal): does not have significant animal toxicity | LD50 (rat; in vivo): > 2,000 mg/kg | LC50 ([1]; Daphnia magna): 370 µg/mL (≈ 2430 µM) | LC50 ([2]; Pimephales promelas): 280 µg/mL (≈ 1840 µM)

CC1COC(=O)O1 (stereo not drawn) [Propylene carbonate, propylene carbonate]
LD50 for oral toxicity (rat; oral): > 5000 mg/kg

OCCCO [propanediol]
LD50 (rat; oral): over 15,000 mg/kg | aquatic toxicity profile ([1]; daphnia magna (water flea)): > 7.417 mg/L | aquatic toxicity profile ([2]; Pimephales promelas (fathead minnow)): > 9,270 mg/L
